Values after ≈ are worked out from the molar mass of the structure shown.
Assay: Solubility comparison at room temperature
Format: physicochemical
Conditions: organic solvent or mixture
Excerpt: Solubility comparison at room temperature (values in mg/l): […]

- solubility (Acetone): 250 µg/mL (≈ 716 µM)
- solubility (Methanol): 125 µg/mL (≈ 358 µM)
SMILES: C[C@@H](c1ncncc1F)[C@](O)(Cn1cncn1)c1ccc(F)cc1F [Crystalline Form B, (2R,3S)-2-(2,4-diflurophenyl)-3-(5-fluoropyrimidin-4-yl)-1-(1H-1,2,4-triazol-1-yl) -butan-2-ol]

— patent publication US8039619B2, “Process for preparing (2R,3S/2S,3R)-2-(2,4-difluorophenyl)-3-(5-fluoropyrimidin-4-yl)-1-(1H-1,2,4-triazol-1-yl)butan-2-ol” (Dr. Reddy's Laboratories Limited, priority 2004, dated 2011)
